For 18 compounds, DC50 results are on record in US20240383886A1, “Protein Tyrosine Phosphatase Degraders and Methods of Use Thereof” (CALICO LIFE SCIENCES LLC, priority 2019, published 2024).

Assay [1] addresses T1, PTPN2 (Homo sapiens, UniProt P17706).
T1 construct: expressed in transfected cells; host or cells: 293T (293T.109 HiBiT-PTPN2 line; parental 293T WT from ATCC)
T1 sequence (P17706 1-415): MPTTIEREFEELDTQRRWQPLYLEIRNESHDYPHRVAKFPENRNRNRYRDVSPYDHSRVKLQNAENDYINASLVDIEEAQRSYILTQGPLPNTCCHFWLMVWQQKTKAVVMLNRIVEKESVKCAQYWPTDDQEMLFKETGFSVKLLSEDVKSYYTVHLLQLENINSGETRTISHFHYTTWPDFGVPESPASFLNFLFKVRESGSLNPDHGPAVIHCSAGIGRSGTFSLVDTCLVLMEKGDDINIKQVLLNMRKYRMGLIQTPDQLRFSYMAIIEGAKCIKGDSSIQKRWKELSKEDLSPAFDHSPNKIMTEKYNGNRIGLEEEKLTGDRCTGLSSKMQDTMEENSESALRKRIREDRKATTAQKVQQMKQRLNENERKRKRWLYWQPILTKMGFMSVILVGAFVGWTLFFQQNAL
In words: HiBiT-Degradation 293T.109 PTPN2 (Nano-Glo HiBiT Lytic Assay). As to conditions: 293T.109 (HiBiT-PTPN2) cells, 24.0 hours. It counts as cell-based. Summed up: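 293T cells ectopically expressing N-terminally HiBiT-tagged PTPN2 were seeded at 5000 cells/well. They were treated with an 11-point half-log titration from 10 μM, in duplicate, for 24 hours at 37° C., 5% CO2. Remaining tagged PTPN2 was quantified by lytic HiBiT luminescence against untreated and no-reagent controls.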

Assay [2] relates to PTPN2. In words: HiBiT-Degradation B16F10.4 PTPN2. It counts as cell-based. As to conditions: B16F10.4 cells, 24.0 hours.

The structures appear in SMILES notation. Where only a bound is given, the exact number is not on record here.

Take `Cn1c(=O)n(C2CCC(=O)NC2=O)c2ccc(C3CCN(C(=O)C(=O)Nc4ccc5c(F)c(N6CC(=O)NS6(=O)=O)c(O)cc5c4)CC3)cc21` (stereo not drawn) [Example 87, 2-[4-[1-(2,6-dioxo-3-piperidyl)-3-methyl-2-oxo-benzimidazol-5-yl]-1-piperidyl]-N-[5-fluoro-7-hydroxy-6-(1,1,4-trioxo-1,2,5-thiadiazolidin-2-yl)-2-naphthyl]-2-oxo-acetamide]: the DC50 on PTPN2 [1] and in the assay on PTPN2 [2] was 10 to 50 nM each time.
Regarding `Cn1c(=O)n(C2CCC(=O)NC2=O)c2ccc(C3CCN(CC(=O)N4CC=C(c5ccc6cc(O)c(N7CC(=O)NS7(=O)=O)c(F)c6c5)C4)CC3)cc21` (stereo not drawn) [Example 88, 3-[5-[1-[2-[3-[8-fluoro-6-hydroxy-7-(1,1,4-trioxo-1,2,5-thiadiazolidin-2-yl)-2-naphthyl]-2,5-dihydropyrrol-1-yl]-2-oxo-ethyl]-4-piperidyl]-3-methyl-2-oxo-benzimidazol-1-yl]piperidine-2,6-dione], the DC50 on PTPN2 [1] and in the assay on PTPN2 [2] was 50 to 200 nM in each case.
As to `Cn1c(=O)n(C2CCC(=O)NC2=O)c2ccc(C3CCN(CCC(=O)N4CC=C(c5ccc6cc(O)c(N7CC(=O)NS7(=O)=O)c(F)c6c5)C4)CC3)cc21` (stereo not drawn) [Example 89, 3-[5-[1-[3-[3-[8-fluoro-6-hydroxy-7-(1,1,4-trioxo-1,2,5-thiadiazolidin-2-yl)-2-naphthyl]-2,5-dihydropyrrol-1-yl]-3-oxo-propyl]-4-piperidyl]-3-methyl-2-oxo-benzimidazol-1-yl]piperidine-2,6-dione], the DC50 at PTPN2 [1] and with PTPN2 [2] was 50 to 200 nM throughout.
As for `Cn1c(=O)n(C2CCC(=O)NC2=O)c2ccc(C3CCN(CC(=O)N4CCC(c5ccc6cc(O)c(N7CC(=O)NS7(=O)=O)c(F)c6c5)C4)CC3)cc21` (stereo not drawn) [Example 90, 3-[5-[1-[2-[3-[8-fluoro-6-hydroxy-7-(1,1,4-trioxo-1,2,5-thiadiazolidin-2-yl)-2-naphthyl]pyrrolidin-1-yl]-2-oxo-ethyl]-4-piperidyl]-3-methyl-2-oxo-benzimidazol-1-yl]piperidine-2,6-dione], the figures for the DC50 at PTPN2 [1] and in the assay on PTPN2 [2] were 50 to 200 nM and 200 to 1000 nM, respectively.
In the same order, the values of `Cn1c(=O)n(C2CCC(=O)NC2=O)c2ccc(C3CCN(CCCn4cc(-c5ccc6cc(O)c(N7CC(=O)NS7(=O)=O)c(F)c6c5)cn4)CC3)cc21` (stereo not drawn) [Example 91, 3-[5-[1-[3-[4-[8-fluoro-6-hydroxy-7-(1,1,4-trioxo-1,2,5-thiadiazolidin-2-yl)-2-naphthyl]pyrazol-1-yl]propyl]-4-piperidyl]-3-methyl-2-oxo-benzimidazol-1-yl]piperidine-2,6-dione] are 10 to 50 nM and 50 to 200 nM.
Turning to `Cn1c(=O)n([C@@H]2CCC(=O)NC2=O)c2ccc(C3CCN(CC(=O)NCCOc4ccc5cc(O)c(N6CC(=O)NS6(=O)=O)c(F)c5c4)CC3)cc21` [Example 92, 2-[4-[1-[(3R)-2,6-dioxo-3-piperidyl]-3-methyl-2-oxo-benzimidazol-5-yl]-1-piperidyl]-N-[2-[[8-fluoro-6-hydroxy-7-(1,1,4-trioxo-1,2,5-thiadiazolidin-2-yl)-2-naphthyl]oxy]ethyl]acetamide], the values for the DC50 at PTPN2 [1] and in the assay on PTPN2 [2] were 50 to 200 nM and 200 to 1000 nM, respectively.
As for `Cn1c(=O)n([C@H]2CCC(=O)NC2=O)c2ccc(C3CCN(CC(=O)NCCOc4ccc5cc(O)c(N6CC(=O)NS6(=O)=O)c(F)c5c4)CC3)cc21` [Example 93, 2-[4-[1-[(3S)-2,6-dioxo-3-piperidyl]-3-methyl-2-oxo-benzimidazol-5-yl]-1-piperidyl]-N-[2-[[8-fluoro-6-hydroxy-7-(1,1,4-trioxo-1,2,5-thiadiazolidin-2-yl)-2-naphthyl]oxy]ethyl]acetamide], the results for the DC50 on PTPN2 [1] and in the assay with PTPN2 [2] were 10 to 50 nM and 50 to 200 nM, respectively.
Regarding `CN(c1ccc(C2CCN(CC(=O)NCCOc3ccc4cc(O)c(N5CC(=O)NS5(=O)=O)c(F)c4c3)CC2)cc1)C1CCC(=O)NC1=O` (stereo not drawn) [Example 94, 2-[4-[4-[(2,6-dioxo-3-piperidyl)-methyl-amino]phenyl]-1-piperidyl]-N-[2-[[8-fluoro-6-hydroxy-7-(1,1,4-trioxo-1,2,5-thiadiazolidin-2-yl)-2-naphthyl]oxy]ethyl]acetamide], the DC50 on PTPN2 [1] and in the assay on PTPN2 [2] was 200 to 1000 nM each time.
`Cn1c(=O)n(C2CCC(=O)NC2=O)c2ccc(C3CCN(CCCCCOc4ccc5cc(O)c(N6CC(=O)NS6(=O)=O)c(F)c5c4)CC3)cc21` (stereo not drawn) [Example 95, 3-[5-[1-[5-[[8-fluoro-6-hydroxy-7-(1,1,4-trioxo-1,2,5-thiadiazolidin-2-yl)-2-naphthyl]oxy]pentyl]-4-piperidyl]-3-methyl-2-oxo-benzimidazol-1-yl]piperidine-2,6-dione]: the DC50 at PTPN2 [1] was 10 to 50 nM; with PTPN2 [2], 50 to 200 nM.
As to `O=C(CN1CCC(c2ccc(NC3CCC(=O)NC3=O)c(Oc3ccccc3)c2)CC1)NCCOc1ccc2cc(O)c(N3CC(=O)NS3(=O)=O)c(F)c2c1` (stereo not drawn) [Example 96, 2-[4-[4-[(2,6-dioxo-3-piperidyl)amino]-3-phenoxy-phenyl]-1-piperidyl]-N-[2-[[8-fluoro-6-hydroxy-7-(1,1,4-trioxo-1,2,5-thiadiazolidin-2-yl)-2-naphthyl]oxy]ethyl]acetamide], the 50% degradation concentration (DC50) on PTPN2 [1] and with PTPN2 [2] was 50 to 200 nM throughout.
Turning to `CN(CCOc1ccc2cc(O)c(N3CC(=O)NS3(=O)=O)c(F)c2c1)C(=O)CN1CCC(c2ccc3c(c2)n(C)c(=O)n3C2CCC(=O)NC2=O)CC1` (stereo not drawn) [Example 97, 2-[4-[1-(2,6-dioxo-3-piperidyl)-3-methyl-2-oxo-benzimidazol-5-yl]-1-piperidyl]-N-[2-[[8-fluoro-6-hydroxy-7-(1,1,4-trioxo-1,2,5-thiadiazolidin-2-yl)-2-naphthyl]oxy]ethyl]-N-methyl-acetamide], the DC50 on PTPN2 [1] was 50 to 200 nM; with PTPN2 [2] it was 200 to 1000 nM.
On to `Cn1c(=O)n(C2CCC(=O)NC2=O)c2ccc(C3CCN(CCCCCCOc4ccc5cc(O)c(N6CC(=O)NS6(=O)=O)c(F)c5c4)CC3)cc21` (stereo not drawn) [Example 98, 3-[5-[1-[6-[[8-fluoro-6-hydroxy-7-(1,1,4-trioxo-1,2,5-thiadiazolidin-2-yl)-2-naphthyl]oxy]hexyl]-4-piperidyl]-3-methyl-2-oxo-benzimidazol-1-yl]piperidine-2,6-dione], for which the DC50 was in the range of 10 to 50 nM at PTPN2 [1] and 50 to 200 nM with PTPN2 [2].
As to `Cn1c(=O)n(C2CCC(=O)NC2=O)c2ccc(N3CCC(CNC(=O)c4ccc5c(F)c(N6CC(=O)NS6(=O)=O)c(O)cc5c4)CC3)cc21` (stereo not drawn) [Example 99, N-[[1-[1-(2,6-dioxo-3-piperidyl)-3-methyl-2-oxo-benzimidazol-5-yl]-4-piperidyl]methyl]-5-fluoro-7-hydroxy-6-(1,1,4-trioxo-1,2,5-thiadiazolidin-2-yl)naphthalene-2-carboxamide], the DC50 at PTPN2 [1] and in the assay on PTPN2 [2] was 50 to 200 nM each time.
For `Cn1c(=O)n(C2CCC(=O)NC2=O)c2ccc(C3CCN(CC(=O)NCCOc4ccc5cc(O)c(N6CC(=O)NS6(=O)=O)c(Cl)c5c4)CC3)cc21` (stereo not drawn) [Example 100, N-[2-[[8-chloro-6-hydroxy-7-(1,1,4-trioxo-1,2,5-thiadiazolidin-2-yl)-2-naphthyl]oxy]ethyl]-2-[4-[1-(2,6-dioxo-3-piperidyl)-3-methyl-2-oxo-benzimidazol-5-yl]-1-piperidyl]acetamide], the DC50 on PTPN2 [1] and in the assay with PTPN2 [2] was 200 to 1000 nM each time.
For the compound `O=C1CCC(Nc2ccc(C3CCN(CC(=O)Nc4ccc5c(F)c(N6CC(=O)NS6(=O)=O)c(O)cc5c4)CC3)cc2Oc2ccccc2)C(=O)N1` (stereo not drawn) [Example 101, 2-[4-[4-[(2,6-dioxo-3-piperidyl)amino]-3-phenoxy-phenyl]-1-piperidyl]-N-[5-fluoro-7-hydroxy-6-(1,1,4-trioxo-1,2,5-thiadiazolidin-2-yl)-2-naphthyl]acetamide], the 50% degradation concentration (DC50) is 200 to 1000 nM at PTPN2 [1] and at least 1000 nM in the assay on PTPN2 [2].
On to `Cn1c(=O)n(C2CCC(=O)NC2=O)c2ccc(C3=CCC(CNC(=O)c4ccc5c(F)c(N6CC(=O)NS6(=O)=O)c(O)cc5c4)CC3)cc21` (stereo not drawn) [Example 102], for which the 50% degradation concentration (DC50) at PTPN2 [1] and in the assay with PTPN2 [2] was 200 to 1000 nM in each case.
Regarding `Cn1c(=O)n(C2CCC(=O)NC2=O)c2ccc(N3CCC(CC(=O)N4CC=C(c5ccc6cc(O)c(N7CC(=O)NS7(=O)=O)c(F)c6c5)C4)CC3)cc21` (stereo not drawn) [Example 103, 3-[5-[4-[2-[3-[8-fluoro-6-hydroxy-7-(1,1,4-trioxo-1,2,5-thiadiazolidin-2-yl)-2-naphthyl]-2,5-dihydropyrrol-1-yl]-2-oxo-ethyl]-1-piperidyl]-3-methyl-2-oxo-benzimidazol-1-yl]piperidine-2,6-dione], the figures for the DC50 on PTPN2 [1] and with PTPN2 [2] were 200 to 1000 nM and 50 to 200 nM, respectively.
In the same order, the values of `Cn1c(=O)n(C2CCC(=O)NC2=O)c2ccc(Nc3ccc(C(=O)Nc4ccc5c(F)c(N6CC(=O)NS6(=O)=O)c(O)cc5c4)cc3)cc21` (stereo not drawn) [Example 104, 4-[[1-(2,6-dioxo-3-piperidyl)-3-methyl-2-oxo-benzimidazol-5-yl]amino]-N-[5-fluoro-7-hydroxy-6-(1,1,4-trioxo-1,2,5-thiadiazolidin-2-yl)-2-naphthyl]benzamide] are 50 to 200 nM and 50 to 200 nM.
